Molecular target: T1, threonine dehydratase (IlvA) (Salmonella enterica, UniProt P20506)
T1 sequence (P20506 1-514): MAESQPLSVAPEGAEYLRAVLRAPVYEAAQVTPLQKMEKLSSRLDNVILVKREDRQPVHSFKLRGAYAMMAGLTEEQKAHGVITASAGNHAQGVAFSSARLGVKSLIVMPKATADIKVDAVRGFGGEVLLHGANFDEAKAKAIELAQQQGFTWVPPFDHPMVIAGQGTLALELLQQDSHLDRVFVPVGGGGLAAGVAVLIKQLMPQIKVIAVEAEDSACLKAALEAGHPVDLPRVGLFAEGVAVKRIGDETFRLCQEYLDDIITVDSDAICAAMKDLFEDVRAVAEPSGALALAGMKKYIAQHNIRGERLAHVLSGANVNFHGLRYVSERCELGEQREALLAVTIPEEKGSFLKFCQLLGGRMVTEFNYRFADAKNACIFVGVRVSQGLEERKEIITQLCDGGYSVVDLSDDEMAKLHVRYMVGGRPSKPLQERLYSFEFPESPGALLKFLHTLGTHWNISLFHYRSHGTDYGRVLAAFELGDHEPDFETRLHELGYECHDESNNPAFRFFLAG
Assay type: biochemical

With NC[C@H](N)C(=O)O [Dap, L-2,3-diaminopropionate] as the compound, how does the Ki read?
Its Ki is 1700 µM.

From paper PMC5384650 (Molecular microbiology, 2016)
